Experimental data from patent publication US20250214966A1, “Crystalline Salt Form Of A SHP2 Inhibitor” (Array BioPharma Inc., priority 2022, published 2025).
Structures can show the parent of a compound that is named as a salt. Where two headings read alike, the source gives them in different places.

Experiments:
Assay type in all cases: physicochemical
[1] = Grinding assessment of form and crystallinity
[2] = Physical stability (PXRD) after storage at 70° C.
Description: Physical Stability (PXRD) (Table 12): Powder X-ray diffraction analysis was conducted using a Bruker AXS D8 Endeavor diffractometer equipped with a Cu radiation source. The divergence slit was set at 10 mm continuous illumination. Diffracted radiation was detected by a PSD-Lynx Eye detector, with the detector PSD opening set at 2.99 degrees. The X-ray tube voltage and amperage were set to 40 kV and 40 mA respectively. Data was collected in the Theta-Theta goniometer at the Cu wavelength from 3.0 to 40.0 degrees 2-Theta using a step size of 0.02 degrees and a step time of 0.3 second. The antiscatter screen was set to a fixed distance of 1.5 mm. Samples were rotated at 15/min during collection. Samples were prepared by placing them in a silicon low background sample holder and rotated during collection. Data were collected using Bruker DIFFRAC Plus software and analysis was performed by EVA diffract plus software. A Small divot sample holder was used.
Physical Stability (PXRD) (Table 13): The Rigaku MiniFlex 6G Diffractometer used is equipped with a Cu radiation source. Diffracted radiation was detected by a D/teX Ultra2 detector. The X-ray tube voltage and amperages were set to 40 kV and 15 mA respectively. Data was collected in the Miniflex goniometer at the Cu wavelength from 3.0 to 45.0° 20 using a step width of 0.02° and a step speed of 2.00°/minute. The incident slit box was set to 1.25° and the length limiting slit was set at 10 mm. The sample was rotated at 10 RPM during collection. The data was analyzed using Rigaku software SmartLab Studio II.
The sample was prepared by placement into a silicon low background sample holder (0.2 indent plate). The sample was confirmed to be level and packed prior to measurement. The sample was not ground (by mortar and pestle, or by any other means) prior to placement in the sample holder.

[3] = Chemical stability (HPLC) after storage at 70° C.
Description: Sample Preparation (Table 12): Crystalline (S)-1′-(6-((2-amino-3-chloropyridin-4-yl)thio)-1,2,4-triazin-3-yl)-1,3-dihydrospiro[indene-2,4′-piperidin]-1-amine free base hemihydrate (Form 1)—Control: Compound (15.46 mg) was weighed into a 50 mL amber volumetric flask. Methanol (approximately 35 mL) was added to the flask, sonicated 4 minutes with intermittent swirling, equilibrated to room temperature, brought to volume with methanol and mixed well with repeated inversions of the flask. Crystalline (S)-1′-(6-((2-amino-3-chloropyridin-4-yl)thio)-1,2,4-triazin-3-yl)-1,3-dihydrospiro[indene-2,4′-piperidin]-1-amine free base hemihydrate (Form 1)—70° C./5% relative humidity (“RH”)/1 week: Compound (14.83 mg) was weighed into a 50 mL amber volumetric flask. Methanol (approximately 35 mL) was added to the flask, sonicated 4 minutes with intermittent swirling, equilibrated to room temperature, brought to volume with methanol and mixed well with repeated inversions of the flask. Crystalline (S)-1′-(6-((2-amino-3-chloropyridin-4-yl)thio)-1,2,4-triazin-3-yl)-1,3-dihydrospiro[indene-2,4′-piperidin]-1-amine free base hemihydrate (Form 1)—70° C./75% RH/1 week: Compound (14.99 mg) was weighed into a 50 mL amber volumetric flask. Methanol (approximately 35 mL) was added to the flask, sonicated 4 minutes with intermittent swirling, equilibrated to room temperature, brought to volume with methanol and mixed well with repeated inversions to the flask.
Chemical stability (HPLC) (Table 12): A Waters Acquity H-Class instrument was used with a Waters XSelect HSS T3 Column (100 angstrom, 4.6×150 mm, 5 μm). The column temperature was set to 20° C., the UV wavelength set to 254 nm, the injection volume was 10 μL, with a flow rate of 1.0 mL/min. 10 mM ammonium acetate adjusted to pH 4.8 was used as a mobile phase A, and acetonitrile was used as mobile phase B. The gradient method was set up to achieve 15% mobile phase B at 0 minutes, 95% mobile phase B at 17 minutes—held until 22 minutes, 15% mobile phase.
70° C./75% RH Sample: about 20 mg of crystalline anhydrous (S)-1′-(6-((2-amino-3-chloropyridin-4-yl)thio)-1,2,4-triazin-3-yl)-1,3-dihydrospiro[indene-2,4′-piperidin]-1-amine mono succinate salt Form 1 was placed in an open amber vial in the 70° C./75% RH chamber 70° C./5% RH Sample: about 20 mg crystalline anhydrous (S)-1′-(6-((2-amino-3-chloropyridin-4-yl)thio)-1,2,4-triazin-3-yl)-1,3-dihydrospiro[indene-2,4′-piperidin]-1-amine mono succinate salt Form 1 was placed in a closed amber vial with the cap taped in a 70° C. chamber with uncontrolled humidity […]

[4] = 70° C./75% RH, first of two lines so headed
[5] = printed 70° C./75% RH, second of two lines so headed

Grinding Assessment [1]	Physical Stability (70° C./75% RH) [2, 4]	Physical Stability (70° C./75% RH) [2, 5]	Chemical Stability (70° C./5% RH), decrease in purity [3] [% decrease in purity]	Chemical Stability (70° C./75% RH), decrease in purity [3] [% decrease in purity]	Chemical Stability (70° C./5% RH), decrease in purity ([3]; 70° C./5% RH, HPLC) [% decrease in purity]	Chemical Stability (70° C./75% RH), decrease in purity ([3]; 70° C./75% RH, HPLC) [% decrease in purity]	Compound
Reduction in crystallinity	No change	No change	0.13	0.19			Nc1nccc(Sc2cnc(N3CCC4(CC3)Cc3ccccc3[C@H]4N)nn2)c1Cl [Example 3, (S)-1′-(6-((2-amino-3-chloropyridin-4-yl)thio)-1,2,4-triazin-3-yl)-1,3-dihydrospiro[indene-2,4′-piperidin]-1-amine Mono Succinate Salt Form 1]
No change in form or crystallinity	No change	No change			0.25	0.09	Nc1nccc(Sc2cnc(N3CCC4(CC3)Cc3ccccc3[C@H]4N)nn2)c1Cl.Nc1nccc(Sc2cnc(N3CCC4(CC3)Cc3ccccc3[C@H]4N)nn2)c1Cl.O [Example 2, (S)-1′-(6-((2-amino-3-chloropyridin-4-yl)thio)-1,2,4-triazin-3-yl)-1,3-dihydrospiro[indene-2,4′-piperidin]-1-amine Free Base Hemihydrate (Form 1)]
